Molecular target: T1, interaction between VCAM-1 and VLA-4 (Homo sapiens, UniProt P05556+P13612)
T1 construct: supplied in their natural form as surface molecules on human U937 cells; host or cells: U937 cells carry VLA-4; The VCAM-1(1-3)-IgG partner was made by transient transfection of COS cells (ATCC CRL1651) and used as culture supernatant
Experiment: U937/VCAM-1 cell adhesion test (adhesion of U937 cells to hVCAM-1(1-3)-IgG)
Format: cell-based
Conditions: human U937 cells adhering to hVCAM-1(1-3)-IgG; concentration giving 50% inhibition of adhesion
Source text: The test method used for the activity of the compounds of the formula I on the interaction between VCAM-1 and VLA-4 is an assay which is specific for this interaction. The cellular binding components, i.e., the VLA-4 integrins, are supplied in their natural form as surface molecules on human U937 cells (ATCC CRL 1593), which belong to the leucocytes group. The specific binding components used are genetically engineered recombinant soluble fusion proteins, consisting of the extracytoplasmatic domain of human VCAM-1 and the constant region of a human immunoglobulin of the subclass IgG1.
Assay for the Measurement of the Adhesion of U937 Cells (ATCC CRL 1593) to hVCAM-1 (1-3)-IgG
1. Preparation of Human VCAM-1(1-3)-IgG and Human CD4-IgG
A genetic construct for the expression of the extracellular domain of human VCAM-1, associated with the genetic sequence of the heavy chain of human immunoglobulin IgG1 (hinge, CH2 and CH3 regions), from Dr. Brian Seed, Massachusetts General Hospital, Boston, USA was employed (cf. Damle and Aruffo, Proc. Natl. Acad. Sci. USA 1991, 88, 6403-6407). The soluble fusion protein hVCAM-1(1-3)-IgG contained the three amino-terminal extracellular immunoglobulin-like domains of human VCAM-1 (Damle and Aruffo, Proc. Natl. Acad. Sci. USA 1991, 88, 6403). CD4-IgG (Zettlmeissl et al., DNA and Cell Biology 1990, 9, 347) served as a fusion protein for negative controls. The recombinant proteins were expressed as soluble proteins after DEAE/dextran-mediated DNA transfection in COS cells (ATCC CRL1651) according to standard procedures (Ausubel et al., Current Protocols in Molecular Biology, John Wiley & Sons, Inc., 1994).
2. Assay for the Measurement of the Adhesion of U937 Cells to hVCAM-1(1-3)-IgG
2.1 96-well microtiter test plates (Nunc Maxisorb) were incubated at room temperature for 1 hour with 100 μl/well of a goat-anti-human IgG antibody solution (10 μg/ml in 50 mM tris, pH 9.5). After removal of the antibody solution, washing was carried out once with PBS.
2.2 150 μl/well of a blocking buffer (1% BSA in PBS) was incubated on the plates at room temperature for 0.5 hour. After removal of the blocking buffer, washing was carried out once with PBS.
2.3 100 μl per well of a cell culture supernatant of transfected COS cells were incubated on the plates at room temperature for 1.5 hours. The COS cells were transfected with a plasmid which codes for the three N-terminal immunoglobulin-like domains of VCAM-1, coupled to the Fc part of human IgG, (hVCAM-1 (1-3)-IgG). The content of hVCAM-1 (1-3)-IgG was about 0.5-1 μg/ml. After removal of the culture supernatant washing was carried out once with PBS.
2.4 The plates were incubated at room temperature for 20 minutes with 100 μl/well of Fc receptor blocking buffer (1 mg/ml of γ-globulin, 100 mM NaCl, 100 μM MgCl2, 100 μM MnCl2, 100 μM CaCl2, 1 mg/ml of BSA in 50 mM HEPES, pH 7.5). After removal of the Fc receptor blocking buffer washing was carried out once with PBS.
2.5 20 μl of binding buffer (100 mM NaCl, 100 μM MgCl2, 100 μM MnCl2, 100 μM CaCl2, 1 mg/ml of BSA in 50 mM HEPES, pH 7.5) were initially introduced, and the substances to be tested were added in 10 μl of binding buffer and incubated for 20 minutes. The controls used were antibodies against VCAM-1 (BBT, No. BBA6) and against VLA-4 (Immunotech, No. 0764). […]

T1 sequence (P13612 34-1032): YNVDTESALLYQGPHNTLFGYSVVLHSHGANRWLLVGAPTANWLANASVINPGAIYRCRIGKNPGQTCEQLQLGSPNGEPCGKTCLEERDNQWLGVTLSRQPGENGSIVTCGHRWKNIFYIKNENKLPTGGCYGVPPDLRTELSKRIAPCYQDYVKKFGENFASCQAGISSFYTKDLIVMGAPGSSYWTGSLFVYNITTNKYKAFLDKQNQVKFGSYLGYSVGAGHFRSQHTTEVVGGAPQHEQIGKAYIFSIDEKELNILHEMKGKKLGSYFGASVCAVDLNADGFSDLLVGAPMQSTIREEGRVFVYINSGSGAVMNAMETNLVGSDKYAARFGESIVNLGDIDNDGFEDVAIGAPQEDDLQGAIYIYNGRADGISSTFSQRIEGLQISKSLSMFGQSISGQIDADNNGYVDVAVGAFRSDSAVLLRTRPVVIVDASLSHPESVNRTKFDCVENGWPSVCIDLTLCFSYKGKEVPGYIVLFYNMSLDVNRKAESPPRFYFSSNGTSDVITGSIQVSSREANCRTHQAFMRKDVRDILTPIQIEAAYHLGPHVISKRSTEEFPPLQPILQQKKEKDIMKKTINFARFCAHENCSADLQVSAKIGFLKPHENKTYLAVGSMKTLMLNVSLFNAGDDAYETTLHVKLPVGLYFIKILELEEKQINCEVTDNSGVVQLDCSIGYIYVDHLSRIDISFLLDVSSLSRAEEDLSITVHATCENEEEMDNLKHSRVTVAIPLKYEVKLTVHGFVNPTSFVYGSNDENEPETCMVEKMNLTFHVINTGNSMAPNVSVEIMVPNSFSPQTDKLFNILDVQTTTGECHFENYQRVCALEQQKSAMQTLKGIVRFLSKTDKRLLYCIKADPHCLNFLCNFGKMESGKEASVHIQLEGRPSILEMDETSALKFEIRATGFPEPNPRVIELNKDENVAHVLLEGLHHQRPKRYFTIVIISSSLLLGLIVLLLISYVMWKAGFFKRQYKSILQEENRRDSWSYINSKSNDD
T1 sequence (P05556 21-798): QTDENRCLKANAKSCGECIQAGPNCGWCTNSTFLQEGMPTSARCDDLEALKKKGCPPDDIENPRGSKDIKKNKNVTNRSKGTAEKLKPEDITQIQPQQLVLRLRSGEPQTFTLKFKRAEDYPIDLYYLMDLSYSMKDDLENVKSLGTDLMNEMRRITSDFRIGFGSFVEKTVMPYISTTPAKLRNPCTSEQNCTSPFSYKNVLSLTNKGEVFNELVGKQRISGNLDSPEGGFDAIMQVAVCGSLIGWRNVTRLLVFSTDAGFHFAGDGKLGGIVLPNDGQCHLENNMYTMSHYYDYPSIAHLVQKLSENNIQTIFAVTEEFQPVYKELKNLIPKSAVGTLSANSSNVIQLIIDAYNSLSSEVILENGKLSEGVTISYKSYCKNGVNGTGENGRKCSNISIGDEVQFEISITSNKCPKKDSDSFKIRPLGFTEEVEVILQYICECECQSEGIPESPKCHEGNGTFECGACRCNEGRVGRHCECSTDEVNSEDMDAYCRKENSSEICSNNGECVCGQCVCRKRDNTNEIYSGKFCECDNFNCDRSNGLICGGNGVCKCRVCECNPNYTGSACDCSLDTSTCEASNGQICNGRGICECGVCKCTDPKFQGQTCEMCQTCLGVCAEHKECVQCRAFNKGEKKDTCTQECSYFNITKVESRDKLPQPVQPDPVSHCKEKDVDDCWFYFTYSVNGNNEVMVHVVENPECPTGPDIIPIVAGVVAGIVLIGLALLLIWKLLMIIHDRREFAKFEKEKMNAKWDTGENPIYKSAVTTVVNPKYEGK

| SMILES | IC50 |
| --- | --- |
| C[C@]1(c2ccc(CO)cc2)C(=O)N(CC(=O)N[C@@H](CC(=O)O)C(=O)N[C@H](C(=O)O)c2ccccc2)C(=O)N1Cc1ccccc1 [Example 8, ((S)-4-(4-Hydroxymethylphenyl)-3-benzyl-4-methyl-2,5-dioxoimidazolidin-1-yl)acetyl-L-aspartyl-L-phenylglycine] | 4.5 µM |
| CC1(c2ccc(O)cc2)C(=O)N(CC(=O)N[C@@H](CC(=O)O)C(=O)N[C@H](C(=O)O)c2ccccc2)C(=O)N1Cc1ccccc1 (stereo partly drawn) [Example 10, ((R,S)-4-(4-Hydroxyphenyl)-3-benzyl-4-methyl-2,5-dioxoimidazolidin-1-yl)acetyl-L-aspartyl-L-phenylglycine] | 9.5 µM |
| C[C@]1(c2ccc(CO)cc2)C(=O)N(CC(=O)NC[C@H](NC(=O)OCC23CC4CC(CC(C4)C2)C3)C(=O)O)C(=O)N1Cc1ccccc1 [Example 9, (S)-3-(((S)-4-(4-Hydroxymethylphenyl)-3-benzyl-4-methyl-2,5-dioxoimidazolidin-1-yl)acetylamino)-2-(1-adamantylmethyloxycarbonylamino)propionic acid] | 4 µM |
| CC1(c2ccccc2)C(=O)N(CC(=O)N[C@@H](CC(=O)O)C(=O)N[C@H](C(=O)O)c2ccccc2)C(=O)N1Cc1ccccc1 (stereo partly drawn) [Example 7, ((R,S)-4-Phenyl-3-benzyl-4-methyl-2,5-dioxoimidazolidin-1-yl)acetyl-L-aspartyl-L-phenylglycine] | 8 µM |
| CC(C)C(C(=O)NC[C@H](NC(=O)OCC12CC3CC(CC(C3)C1)C2)C(=O)O)N1C(=O)N(Cc2ccccc2)C(C)(c2ccccc2)C1=O (stereo partly drawn) [Example 4, (S)-3-((R,S)-2-((R,S)-4-Phenyl-3-benzyl-4-methyl-2,5-dioxoimidazolidin-1-yl)-2-isopropylacetylamino)-2-(1-adamantylmethyloxycarbonylamino)-propionic acid] | 45 µM |
